Data reported in PubChem BioAssay (NCI).
“And” between values parts separate entries of the source, which are not always exact repeats. Equal values may be shown once.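 Grown in 96-well plates, cells were treated for 48 hours with each compound at five concentrations. Insufficient inhibition: endpoint recorded as highest concentration tested. GI50 = concentration required for 50% inhibition of growth. TGI denotes the concentration required for complete inhibition of growth.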

How the values were obtained:
Experiment in all cases: inhibition of tumour cell growth, NCI panel, 48 h
HCT-116 colon = tested on: HCT-116 colon
HOP-62 NSCLC = tested on: HOP-62 NSCLC
NCI/ADR-RES ovarian = tested on: NCI/ADR-RES ovarian
OVCAR-4 ovarian = tested on: OVCAR-4 ovarian
SF-539 CNS = tested on: SF-539 CNS
SK-MEL-28 melanoma = tested on: SK-MEL-28 melanoma
SK-MEL-5 melanoma = tested on: SK-MEL-5 melanoma
SR leukemia = tested on: SR leukemia
T-47D breast = tested on: T-47D breast
UACC-62 melanoma = tested on: UACC-62 melanoma

SMILES | GI50 (HCT-116 colon) | TGI (HCT-116 colon) | GI50 (HOP-62 NSCLC) [µM] | TGI (HOP-62 NSCLC) | GI50 (NCI/ADR-RES ovarian) [µM] | TGI (NCI/ADR-RES ovarian) [µM] | GI50 (OVCAR-4 ovarian) [µM] | TGI (OVCAR-4 ovarian) | GI50 (SF-539 CNS) | TGI (SF-539 CNS) | GI50 (SK-MEL-28 melanoma) | TGI (SK-MEL-28 melanoma) | GI50 (SK-MEL-5 melanoma) | TGI (SK-MEL-5 melanoma) | GI50 (SR leukemia) | TGI (SR leukemia) | GI50 (T-47D breast) [µM] | TGI (T-47D breast) | GI50 (UACC-62 melanoma) [µM] | TGI (UACC-62 melanoma)
Cc1cc(Cl)cc(OCCn2cc(F)cn2)c1-c1nc(N)nc2c1CN(C(=O)NCC(C)(F)F)C2 | 0.0548 µM | > 100 µM | 0.622 | > 100 µM | 53.1 | > 100 | > 100 | > 100 µM | 0.181 µM | > 100 µM | 0.0709 µM | > 100 µM | 0.179 µM | > 100 µM | 0.0495 µM | > 100 µM | 0.235 | > 100 µM | 0.0779 | > 100 µM
COc1cc(OCc2cccc(-c3ccc(C(O)c4nccs4)cc3)c2C)cc(OC)c1C=O (configuration not stated) | 1.44 µM | 4.51 µM | 3.88 | 18.3 µM | 2.84 | 14.7 | 0.597 | 6.35 µM | 1.96 µM | 4.83 µM | 2.04 µM | 6.57 µM | 1.11 µM | 2.4 µM | 1.82 µM | 5.08 µM | 0.401 | 6.38 µM | 0.349 | 1.92 µM
Cc1ccc(S(=O)(=O)Nc2ccccc2C=O)cc1 | – | 28 µM | – | 85 µM | – | 59 | – | > 100 µM | – | 5.08 µM | – | 64.7 µM | – | 25.1 µM | – | 86.3 µM | – | 72.7 µM | – | 27 µM
O=C(Nc1ccc2ncccc2c1)Nc1ccc2ncccc2c1 | – | > 100 µM | – | > 100 µM | – | > 100 | – | > 100 µM | – | > 100 µM | – | > 100 µM | – | > 100 µM | – | > 100 µM | – | > 100 µM | – | > 100 µM
S=C(Nc1ccc(Cl)cc1)Nc1ccc(-c2nc3ccccc3s2)cc1 | 13.5 µM | 26.3 µM | 20.1 | 41 µM | 17.5 | 36.6 | 14.4 | 69.4 µM | 17.5 µM | 34 µM | 19.1 µM | 44.2 µM | 11 µM | 22.9 µM | 4.47 µM | 27.4 µM | 5.19 | 38.9 µM | 10.4 | 24.8 µM
CCOC(=O)c1ccc(NC(=O)Oc2ccc3c(C)cc(=O)oc3c2)cc1 | – | 82.9 µM | – | 98.6 µM | – | > 100 | – | > 100 µM | – | > 100 µM | – | > 100 µM | – | 29.1 µM | – | 54.2 µM | – | 78 µM | – | > 100 µM
COc1cccc(CC(C)=C(c2ccc(OCCN(C)C)cc2)c2ccc(OCCN(C)C)cc2)c1 | 0.644 µM | 1.5 µM | 2.24 | 6.92 µM | 3.76 | 8.32 | 3.53 | 8.16 µM | 0.589 µM | 1.1 µM | 0.602 µM | 1.1 µM | 4.75 µM | 9.26 µM | 0.787 µM | 2.22 µM | 0.681 | 1.77 µM | 0.689 | 1.5 µM
c1ccc(-c2nnc(-c3ccccn3)s2)nc1 | > 100 µM | > 100 µM | > 100 | > 100 µM | > 100 | > 100 | > 100 | > 100 µM | > 100 µM | > 100 µM | > 100 µM | > 100 µM | > 100 µM | > 100 µM | > 100 µM | > 100 µM | 5.32 | > 100 µM | > 100 | > 100 µM
COC(=O)c1ccc2c(c1)nc(NC(=O)c1ccccc1)n2CCCc1ccccc1 | 3.06 µM | > 100 µM | 5.03 | > 100 µM | 4.1 | > 100 | 2.93 | > 100 µM | 3.8 µM | > 100 µM | 3.79 µM | > 100 µM | 2.13 µM | 5.87 µM | 2.54 µM | > 100 µM | 4.35 | > 100 µM | 2.49 | > 27 µM
COC(=O)C[C@](O)(CCCC(C)(C)O)C(=O)O[C@@H]1C(OC)=C[C@]23CCCN2CCc2cc4c(cc2[C@H]13)OCO4 | 0.134 µM and 0.0153 µM | – | 0.0363 | 0.366 µM and 0.265 µM | 0.934 | 14.6 | 0.0221 | 1.15 µM and 0.149 µM | 0.0195 µM | 0.264 µM and 0.0539 µM | 0.0222 µM | – | 0.0149 µM | – | – | 0.751 µM | 0.0297 | – | 0.03 | 0.712 µM and 0.137 µM
O=C(O)COc1ccc2c(=O)c3sc4c(=O)c5ccccc5c(=O)c4c3c(=O)c2c1 | 15.7 µM | 63.3 µM | 8.03 | 22.4 µM | 29.9 | > 100 | 14.1 | 27.3 µM | 13.2 µM | 26.1 µM | 8.19 µM | 28.6 µM | 1.75 µM | 3.35 µM | 32.8 µM | > 100 µM | 21.4 | 50.9 µM | 12 | 39.4 µM
COc1ccc(OC)c2c1[nH]c(=O)c1c3ccccc3cn21 | 0.673 µM | 2.01 µM | 1.52 | 3.18 µM | 1.5 | 3.38 | 1.38 | 3.1 µM | 1.69 µM | 3.08 µM | 1.92 µM | 3.38 µM | 1.53 µM | 2.93 µM | 0.189 µM | 2.36 µM | 1.3 | 4.07 µM | 1.55 | 2.92 µM
CC[As](CC)SC[C@H](C)C(=O)N1CCC[C@H]1C(=O)O | 0.0419 µM | 0.162 µM | 0.417 | 1.37 µM | 0.0152 | 0.13 | 0.334 | 1.13 µM | 0.0291 µM | 0.136 µM | 0.055 µM | 0.212 µM | 0.054 µM | 0.151 µM | < 0.01 µM | 0.0102 µM | 0.414 | 1.96 µM | 0.149 | 0.538 µM
Cn1cc(C2=C(c3ccc(N)cc3)C(=O)NC2=O)c2ccccc21 | 11.3 µM | > 25 µM | > 25 | > 25 µM | 21.8 | > 25 | > 25 | > 25 µM | 9.02 µM | > 25 µM | > 25 µM | > 25 µM | > 17.8 µM | > 25 µM | 9.43 µM | > 25 µM | > 24 | > 25 µM | 11.8 | > 25 µM
Cc1cc(C)c2c(n1)sc1c(Nc3ccc(Cl)cc3)ncnc12 | < 0.01 µM | > 100 µM | < 0.01 | – | < 0.01 | > 100 | > 100 | > 100 µM | < 0.01 µM | 0.0882 µM | 4.4 µM | > 100 µM | < 0.0141 µM | > 100 µM | < 0.01 µM | 38.6 µM | 0.0299 | > 100 µM | < 0.01 | –
O=C(Nc1ccc(Nc2ccncc2)cc1)c1ccc([N+](=O)[O-])cc1 | 2.93 µM | 17 µM | 13.7 | 29 µM | 14.2 | > 62.5 | 5.37 | 27.4 µM | 3.58 µM | 13.2 µM | 5 µM | 16.7 µM | 4.89 µM | 21.4 µM | 2.32 µM | > 20.4 µM | 3.3 | 20 µM | 2.65 | 9.64 µM
COc1ccccc1/C=N\N/C(N)=N\N=C\c1ccccc1OC | 0.358 µM | 5.55 µM | 0.586 | 6.68 µM | 0.39 | – | 1.05 | > 100 µM | 0.264 µM | 1.02 µM | 2.64 µM | 28.4 µM | 0.371 µM | 4.14 µM | 0.0319 µM | 0.74 µM | 0.457 | 7.36 µM | 0.497 | > 40.7 µM
COc1cccc2c1C(=O)c1c(O)c3c(c(O)c1C2=O)C[C@@](O)(C(=O)CO)C[C@@H]3OC1CC(N)CC(C)O1 (some centres not stated) | 0.0155 µM and 0.0431 µM | 0.79 µM and 0.33 µM | 0.0175 | 0.326 µM and 0.0977 µM | 2.75 | 28.2 | 0.0885 | 0.456 µM and 0.413 µM | 0.0189 µM and 0.0471 µM | 0.194 µM and 0.211 µM | 0.135 µM and 0.0938 µM | 0.325 µM and 0.477 µM | 0.00743 µM and 0.025 µM | 0.145 µM and 0.203 µM | 0.00548 µM and 0.02 µM | 0.492 µM and 0.632 µM | 0.067 | 1.13 µM and 0.696 µM | 0.0308 | 0.148 µM and 0.0691 µM
